≈ marks a conversion by molar mass, not a printed value. Read-outs that look alike come from different tables or passages of the source. Values belong to the molecule of their own block, whether it stands above or below them.
Key:
[1] = tested on: rat primary pancreatic cells; assay: Toxicity against rat primary pancreatic cells (MTT); details: 0.05 µM, 7 h
Protocol: The toxicity of the compounds against rat primary pancreatic cells was evaluated by the MTT protocol (Table 2). […] Sodium taurocholate (NaTc) was also used at high concentrations as a model of acute pancreatitis in vitro.
Rat primary pancreatic cells were isolated as previously described. Afterwards, pancreatic cells were resuspended in Na-HEPES solution (pH 7.4) containing 14 mM glucose, 1% essential amino acid mixture, 1% (w/v) BSA, 0.01% (w/v) STI, 0.5 mM CaCl2 and incubated (5% CO2, at 37 °C) for 7 h in the absence (non-treated control) or the presence of compounds at different concentrations. After the treatment, cells were incubated (5% CO2, at 37 °C) with 0.5 mg/mL MTT for 2 h and the formazan crystals were solubilized with DMSO (v/v). The optical density was read at 570 nm with a reference wavelength of 630 nm. Non-treated cell viability was set as 100%.

[2] = Aqueous solubility determination (shake flask, UV); assay type: physicochemical; details: for solubility at 48 h: thermodynamic from solid
Protocol: One of the expected effects of introducing nitrogen substitutions on combretastatin and isocombretastatin analogues, is an increase in aqueous solubility. Solubility was spectrophotometrically determined in phosphate buffer at pH 7. UV absorbance of soluble compounds was measured after shaking and microfiltration. […] In addition, aqueous solubilities of the corresponding ammonium salts are over 1 mg/mL.
This great improvement is probably due to the symmetry reduction, combined with an increased polarity for 2g.
Compounds were stirred in a solution of phosphate buffer at pH 7.0 (1–2 mg of compound in 300 µL of buffer) during 48 h. After that, the samples were filtered over a […] filter to discard the insoluble residues. In order to determine the maximum wavelength of absorbance for each compound, a scan between 270 and 400 nm was performed. Once the wavelength was selected, a calibration line was performed and the concentration of the stirred and filtered samples was measured.

[3] = tested on: HeLa cervix epithelioid carcinoma; assay: MTT cell antiproliferative assay, HeLa; assay type: cell-based; details: Homo sapiens, 72 h
Protocol: (§1) The in vitro antiproliferative activity of the synthesized compounds was evaluated by a colorimetric reaction, using the MTT reagent. They were tested against three different human tumor cell lines: HeLa cervix epithelioid carcinoma, HT-29 colon adenocarcinoma, and MCF-7 breast adenocarcinoma. […] Moving the alkylamino substituent from a para to a meta position with respect to the bridge results in potency reduction, except for the phenstatin analogue 1f. However, the introduction of a nitrogen atom to form 2-dimethylaminopyridine derivatives entails a loss of activity, both for phenstatin analogues (1b, 2b), while for isocombretastatins, it only involves a 2–3 times potency decrease (3b). For combretastatins, it implies an improvement in the cytotoxicity values down to tenths of nanomolar (8b). […] On the other hand, the best 2-dimethylaminopyridine was combretastatin 8b. All ammonium salts derivatives were not cytotoxic at micromolar concentrations.
(§2) HeLa (human cervical carcinoma) and MCF-7 (human breast carcinoma) cell lines were cultured in Dulbecco’s Modified Eagles Medium (DMEM) supplemented with 2 mM L-glutamine (Lonza-Cambrex, Karlskoga, Sweden), 10% (v/v) heat inactivated fetal bovine serum (HIFBS) (Lonza-Cambrex) and 100 μg/mL streptomycin-100 IU/mL penicillin (Lonza-Cambrex) at 37 °C in humidified 95% air and 5% CO2. HT-29 (human colon carcinoma) cells were cultured at 37 °C in complete RPMI 1640 medium containing 2 mM L-glutamine, 10% (v/v) HIFBS and 100 μg/mL streptomycin-100 IU/mL penicillin in humidified 95% air and 5% CO2 atmosphere.
(§3) The effect of the different compounds on the proliferation of human cell lines was determined by using the MTT (3-[4,5-dimethylthiazol-2-yl]-2,5-diphenyltetrazolium bromide) reagent (MTT Thiazolyl Blue Tetrazolium Bromide, Sigma-Aldrich, St. Louis, MO, USA) dissolved in PBS 5 mg/mL. Cell viability was evaluated seeding 100 µL of cells in exponential growth phase with appropriate cell line concentration (1.5 × 10^4 HeLa and MCF-7 cells/mL and 3 × 10^4 HT-29 cells/mL) in complete medium in 96-well plates at 37 °C and 5% CO2. After 24 h incubation to allow cells to attach to the plates the ligands were added at different concentrations from 10^−5 to 10^−9 M. The effect on the proliferation was evaluated 72 h post-treatment by adding the MTT reagent (10 µL/well) to a final concentration of 0.5 mg/mL and the plate was further incubated for another 3 h. After this period, the supernatant was removed, the MTT violet crystals formed on the bottom of each well were dissolved in DMSO (100 µL/well) and subsequently, the absorbance of the color complex was read at 570 nm using a multi-well plate reader. Compounds were dissolved in dimethyl sulfoxide (DMSO) and the final solvent concentrations never exceeded 0.5% (v/v). The control wells included treated cells with 0.5% (v/v) DMSO and the positive control. Measurements were performed in triplicate, and each experiment was repeated three times. […] Nonlinear curves fitting the experimental data were carried out for each compound.

[4] = tested on: HT-29 colon adenocarcinoma; assay: MTT cell antiproliferative assay, HT-29 (without or with verapamil); assay type: cell-based, human; details: for IC50: Homo sapiens, HT-29, MTT, 72 h
Protocol: as §1
As observed in Table 1, there are no significant changes in the IC50 values for most compounds, except for combretastatins 8a and 8i.
Acquired resistance to antitumor drugs is one of the more important problems of chemotherapy, also affecting tubulin-targeting drugs. In order to ascertain the impact of multidrug resistance phenotypes on the action of the compounds, we have measured the cell proliferation inhibitory activity of HT-29 cells in the presence of verapamil, a known P-glycoprotein 1/multidrug resistance protein 1 (MDR1) inhibitor at a concentration of 10 µM, not affecting cell proliferation. […] Except for the combretastatin analogues 8a and 8i, the affected drugs are all pyridine drugs.
as §2, §3

[5] = tested on: Bovine brain microtubule protein (MTP); assay: Tubulin polymerization inhibition assay (turbidimetry); assay type: biochemical; details: 1.5 mg/mL MTP; IC50 calculated only if more than 50% inhibition at 20 µM; read-out: TPI IC50
Protocol: Bovine brain microtubule protein (MTP) was isolated as previously described. Briefly, it was purified according to the modified Shelanski method by two cycles of temperature-dependent assembly/disassembly.
Tubulin polymerization was monitored using a Helios α spectrophotometer by measuring the increase in turbidity at 450 nm, caused by a shift from 4 °C to 37 °C, which allows the in vitro MTP self-disassembly and assembly respectively. […] Firstly, ligands at 20 µM concentration, were incubated with 1.5 mg/mL MTP at 20 °C for 30 min and subsequently cooled on ice for 10 min. Then, the experiment starts at 4 °C to establish the initial baseline. The assembly process was initiated by shifting of the temperature to 37 °C and the turbidity produced can be measured by an absorbance increase. After reaching a stable plateau, the temperature was switched back to 4 °C to return to the initial absorption values. The difference in amplitude between the stable plateau and the initial baseline of the curves was taken as the degree of tubulin polymerization for each experiment. […] All the measurements were carried out in at least two independent experiments using MTP from different isolation.

[6] = tested on: MCF-7 breast adenocarcinoma; assay: MTT cell antiproliferative assay, MCF-7; assay type: cell-based; details: Homo sapiens, MCF7, 72 h
Protocol: as §1, §2, §3

[7] = tested on: HeLa, HT-29 and MCF-7 human tumor cell lines; assay: Antiproliferative activity over the three human tumor cell lines (MTT); assay type: cell-based; details: Homo sapiens, range over the cell lines, Table S1; read-out: Cytotoxicity range (range of antiproliferative IC50 values)
Protocol: as §1
The antiproliferative activity of the compounds against three human tumor cell lines of different origins (i.e., HeLa cervix epithelioid carcinoma, HT-29 colon adenocarcinoma and MCF-7 breast adenocarcinoma) was evaluated by the MTT method. […] This high success rate is the result of a combination of favorable scaffolds and substituents, and it is similar to those of previous reports on related series. […] We have previously observed the same trend for related compounds acting at the colchicine site of tubulin [10, 23]. For this pyridine series, we observed a different potency trend when we compare the 4-amino-3-pyridine and the 3-amino-4-pyridine derivatives. […] This different behavior is probably a reflection of their different shape, combined with the different geometries imposed by different bridges. We have previously shown that the potency ordering isocombretastatins similar to oximes higher than benzophenones could be explained by the higher conjugation of the ketones with the aromatic rings, which imposes a more planar disposition than those required for high affinity colchicine site binding. For the 3-amino-4-pyridine series, more planar structures are required in order to avoid the bumping of the amino substituents with tubulin out the plane of the aromatic ring, an effect which we have previously shown to impact the potency of 3-substituted indolecombretastatins and dimethylaminophenyl phenstatins. This different geometrical disposition of the amino substituents, and the different adaptability of their corresponding pockets in the two series, can also account for the preference of bulkier substituents at position 3, such as the pyrrolidine rather than the smaller dimethylamino. […] The opposite is observed for the 4-dimethylaminophenyl phenstatins 1a and 1b. […] The remarkable levels of solubility achieved for the quaternary ammonium salts came unfortunately at the expenses of biological activity.
The effect of the different compounds on the proliferation of human cell lines was determined by using the MTT (3-[4,5-dimethylthiazol-2-yl]-2,5-diphenyltetrazolium bromide) reagent (MTT Thiazolyl Blue Tetrazolium Bromide, Sigma-Aldrich, St. Louis, MO, USA) dissolved in PBS 5 mg/mL. Cell viability was evaluated seeding 100 µL of cells in exponential growth phase with appropriate cell line concentration (1.5 × 10^4 HeLa and MCF-7 cells/mL and 3 × 10^4 HT-29 cells/mL) in complete medium in 96-well plates at 37 °C and 5% CO2. After 24 h incubation to allow cells to attach to the plates the ligands were added at different concentrations from 10^−5 to 10^−9 M. The effect on the proliferation was evaluated 72 h post-treatment by adding the MTT reagent (10 µL/well) to a final concentration of 0.5 mg/mL and the plate was further incubated for another 3 h. […]

[8] = phosphate buffer, pH 7, aqueous buffer, phosphate buffer pH 7.0, 48 h stirring, filtered, UV, read-out: Solub.
[9] = aqueous buffer, phosphate buffer pH 7.0, 48 h stirring, filtered, UV, read-out: Solub.

IC50 [3]: 1600 nM | IC50 [4]: 5170 nM | IC50 [6]: 2330 nM | IC50 [5]: > 20000 nM
SMILES: COc1cc(C(=O)c2ccc(N3CCCC3)nc2)cc(OC)c1OC [Compound 1c, (6-(Pyrrolidin-1-yl)pyridin-3-yl)(3,4,5-trimethoxyphenyl)methanone]
IC50 [7]: > 1000 nM

IC50 [3]: 413 nM | IC50 [4]: 500 nM | IC50 [6]: 407 nM | IC50 [5]: > 20000 nM
SMILES: COc1ccc(C(=O)c2ccc(N(C)C)cc2)c(OC)c1OC [Compound 1d, (4-(Dimethylamino)phenyl)(2,3,4-trimethoxyphenyl)methanone]
IC50 [7]: 407 to 650 nM

solubility at 48 h [2, 8]: 33.8 µg/mL (≈ 107 µM) | IC50 [3]: 387 nM | IC50 [4]: 313 nM | IC50 [6]: 223 nM | IC50 [5]: > 20000 nM
SMILES: COc1cc(C(=O)c2ccnc(N(C)C)c2)cc(OC)c1OC [Compound 1g, (2-(Dimethylamino)pyridin-4-yl)(3,4,5-trimethoxyphenyl)methanone]
IC50 [7]: 223 to 387 nM

solubility at 48 h [2, 8]: 583 µg/mL (≈ 1760 µM) | solubility at 48 h ([2]; phosphate buffer, pH 7, aqueous buffer, phosphate buffer pH 7, stated in text, read-out: aqueous solubility): ~600 µg/mL (≈ 1810 µM) | IC50 [3]: 533 nM | IC50 [4]: 3370 nM | IC50 [6]: 407 nM | IC50 [5]: > 20000 nM
SMILES: COc1cc(C(=NO)c2ccnc(N(C)C)c2)cc(OC)c1OC [Compound 2g, (2-(Dimethylamino)pyridin-4-yl)(3,4,5-trimethoxyphenyl)methanone oxime]

IC50 [3]: 1000 nM | IC50 [4]: 4000 nM | IC50 [6]: 2000 nM | IC50 [5]: > 20000 nM
SMILES: C=C(c1ccc(N(C)C)cc1)c1ccc(OC)c(OC)c1OC [Compound 3d, N,N-dimethyl-4-(1-(2,3,4-trimethoxyphenyl)vinyl)aniline]
IC50 [7]: > 1000 nM

solubility at 48 h [2, 8]: 136 µg/mL (≈ 433 µM) | IC50 [3]: 403 nM | IC50 [4]: 397 nM | IC50 [6]: 367 nM | IC50 [5]: > 20000 nM
SMILES: C=C(c1ccnc(N(C)C)c1)c1cc(OC)c(OC)c(OC)c1 [Compound 3g, N,N-Dimethyl-4-(1-(3,4,5-trimethoxyphenyl)vinyl)pyridin-2-amine]

solubility at 48 h [2, 8]: 62 µg/mL (≈ 182 µM) | IC50 [3]: 257 nM | improvement of HT-29 IC50 after verapamil treatment ([4]; 10 µM verapamil): > 2 fold | IC50 [4]: 477 nM | IC50 [6]: 317 nM | IC50 [5]: > 20000 nM
SMILES: C=C(c1ccnc(N2CCCC2)c1)c1cc(OC)c(OC)c(OC)c1 [Compound 3h, 2-(Pyrrolidin-1-yl)-4-(1-(3,4,5-trimethoxyphenyl)vinyl)pyridine]
IC50 [7]: 230 to 477 nM

More lines, now with the values behind:

SMILES: CC(=O)O[C@H]1C[C@H](O[C@H]2[C@@H](O)C[C@H](O[C@H]3[C@@H](O)C[C@H](O[C@H]4CC[C@@]5(C)[C@H](CC[C@@H]6[C@@H]5C[C@@H](O)[C@]5(C)[C@@H](C7=CC(=O)OC7)CC[C@]65O)C4)O[C@@H]3C)O[C@@H]2C)O[C@H](C)[C@H]1O [Acetyldigoxin, acetyl-digoxin, reference compound]
live cells with respect to the non-treated control (means ± S.E.M.) [1]: 84.41 ± 9.64%

SMILES: COc1cc(C(=O)c2ccc(N(C)C)cc2)cc(OC)c1OC [Compound 1a, (4-(Dimethylamino)phenyl)(3,4,5-trimethoxyphenyl)methanone]
Solub. ([2]; phosphate buffer pH 7.0, 48 h stirring, filtered, UV): 48 µg/mL | IC50 [3]: 90 nM | IC50 [4]: 400 nM | IC50 [5]: > 20000 nM

SMILES: COc1cc(C(=NO)c2ccc(N(C)C)cc2)cc(OC)c1OC [Compound 2a, (4-(Dimethylamino)phenyl)(3,4,5-trimethoxyphenyl)methanone oxime]
solubility at 48 h [2, 9]: 74 µg/mL (≈ 224 µM) | IC50 [3]: 800 nM | IC50 [4]: 1000 nM | IC50 [5]: > 20000 nM

SMILES: C=C(c1ccc(N(C)C)cc1)c1cc(OC)c(OC)c(OC)c1 [Compound 3a, N,N-Dimethyl-4-(1-(3,4,5-trimethoxyphenyl)vinyl)aniline]
solubility at 48 h [2, 9]: 30 µg/mL (≈ 95.7 µM) | IC50 [3]: 40 nM | IC50 [4]: 70 nM | IC50 [5]: 1900 nM
